# Data: PMC11056319, “Targeting PRMT9-mediated arginine methylation suppresses cancer stem cell maintenance and elicits cGAS-mediated anticancer immunity” (Nature Cancer, 2024)
# System: Molm13
# Experiment: cells
# Design: Molm13 cell viability screen of virtual-screening hits, 4 days of treatment, per cent of control
# Conditions: Homo sapiens, MOLM-13, 96 h, 4 days
# Description: We performed virtual screening. Briefly, we screened compounds for binding affinity to PRMT9; compounds were from the National Cancer Institute (NCI) and ZINC library (Fig. 4a,b). […] We used doses of 1 and 5 µM in a Molm13 cell-based viability assay (Extended Data Fig. 6a). […] Specifically, we assessed their effects on PRMT9 catalysis (Extended Data Fig. 6b). […] Cells were treated for 4 days with 1 or 5 μM compounds. For each compound, the number represents its library ID. Experiments were triplicated; P values were derived from t tests. b, R493 methylation assay. […] Catalytic activity was assessed by anti-R493 antibody. Synthesized R493me peptide as positive control. c, Catalysis screen of top 20 compounds. PRMT9 protein was pretreated with indicated compound (10 μM), then incubated with PABPC1 peptides and SAM. d, e, Catalytic activity of indicated compounds based on R493 methylation assay (d). Inhibition curves were calculated based on intensity of dots and normalized to DMSO (e). […] LD2 is designed based on NSC641396 (g). Docking model of NSC641396 in the catalytic pocket (f). h, IC50 analysis of LD2 in B-NHL lines. Cells were treated for 4 days with LD2. […] Cells were treated with a dose titration of 0.5–40 μM LD2 for 48 hr. The inhibition activity of LD2 to PRMT9 (right red curve) was evaluated by calculating the normalized PABPC1 R493 methylation signal. The inhibition activity of LD2 to PRMT5 (right blue curve) was evaluated by calculating the normalized SmB’B’ methylation signal (supplementary Fig. 2). k, Vina docking of LD2 with PRMT9, PRMT5, CARM1 or PRMT7 was performed, and the average docking scores (kcal/mol, with standard deviation) were shown. l, Molecular dynamics simulation analyses of LD2 with PRMT9 or PRMT5.
SMILES,viability at 1 µM [%],viability at 5 µM [%]
CC[C@@]1(O)C(=O)OCc2c1cc1n(c2=O)Cc2cc3ccccc3nc2-1 [NSC94600],2.48,1.54
COc1cc2c(=O)n3c4c(cccc4c2cc1OC)CC3 [NSC276736],97.9,–
c1ccc(-c2nc(-c3ccccn3)nc(-c3ccccn3)n2)nc1 [NSC112125],85.4,81.8
O=C(Nc1ccc(Br)c2ccccc12)c1ccc2ccccc2c1O [NSC601359],–,72.7
Cc1nn(-c2ccccc2)nc1C(=O)Nc1ccc2[nH]ncc2c1 [NSC371765],–,86.1
Cc1cc(O)c(C(C)C)cc1NC(=O)Nc1cccc2ccccc12 [NSC32673],90.3,45.8
Oc1c(Cl)cc(Cl)cc1/C=N/c1nc(-c2ccc(Cl)cc2)cs1 [NSC328104],87.9,–
O=c1cc(-c2cccnc2)oc2c1ccc1ccccc12 [NSC283845],–,60.4
O=C(Nc1ccccc1F)Nc1cccc2ccc(O)cc12 [NSC214005],81.3,72.7
Cc1cc2cc3c(=O)[nH]c(=O)[nH]c3nc2cc1C [NSC109174],–,79.9
c1ccc(-c2ccc(-c3nccc4ccccc34)[nH]2)cc1 [NSC116644],–,88.3
NC1=NC(c2ccc(Cl)cc2)N(c2ccc(S(N)(=O)=O)cc2)C(N)=N1 (stereo not drawn) [NSC117268],90.3,–
O=C(O)c1cc2ccccc2cc1Nc1ccccc1 [NSC40275],116,–
O=C(O)C(Cc1c[nH]c2ccccc12)N1C(=O)c2ccccc2C1=O (stereo not drawn) [NSC401077],94.6,75.3
O=C(Nc1cccc2ccccc12)c1cc2c(cc1Br)OCO2 [NSC292923],68.9,68.3
O=C1c2cccc(Oc3ccccc3)c2C(=O)c2cccc(Oc3ccccc3)c21 [NSC37627],144,151
Cc1cc(N2CCN(C)CC2)n2nc(-c3ccc(Cl)cc3)nc2n1 [NSC252359],64,75.8
Clc1cc2c(c(CSc3nc4ccccc4n4cccc34)c1)OCOC2 [NSC321491],–,85.7
Cc1c(Cl)cccc1NC(=O)CC1Sc2ccccc2NC1=O (stereo not drawn) [NSC634396],169,118
OC(c1cc(-c2ccc(C(F)(F)F)cc2)nc(C(F)(F)F)c1)C1CCCCN1 (stereo not drawn) [NSC305798],91,18.9
COC(=O)[C@@H]1[C@H](O)[C@H](C)[C@H](O)[C@H](C)/C=C\C=C(/C)C(=O)Nc2c(C)c(OC(C)=O)c3c(c2O)C(=O)C(C)=C2OCOC(=C23)/C(C)=C/[C@@](C)(O)[C@H](O)[C@@H](C)[C@H]1O [NSC19990],68.6,83.8
Cc1ccc2c(c1)Sc1c(ccc3ccccc13)N2 [NSC40273],–,102
Clc1ccccc1-c1nc2ccccc2[nH]1 [NSC128751],80.4,80
CO[C@@H]1[C@@H](OC(=O)c2ccc(C)[nH]2)[C@@H](O)[C@H](Oc2ccc3c(O)c(NC(=O)c4ccc(O)c(CC=C(C)C)c4)c(=O)oc3c2Cl)OC1(C)C [NSC227186],–,110

SMILES,viability at 1 µM [%],viability at 5 µM [%]
Cc1nn(-c2ccccc2)c2c1C(c1ccc([N+](=O)[O-])cc1)C(C#N)=C(N)O2 (stereo not drawn) [NSC298892],84.2,69.1
OC(COc1cccc2ccccc12)CN1CCN(c2ccc(Cl)cc2)CC1 (stereo not drawn) [NSC111210],160,139
O=C(Nc1cccc([N+](=O)[O-])c1)c1ccc2ccccc2c1O [NSC50648],81,62.1
CO[C@@H]1C[C@](C)(O)Cc2cc3c(c(O)c21)C(=O)c1c(O)cc2c(c1C3=O)O[C@@H]1O[C@@]2(C)[C@H](O)[C@@H](N(C)C)[C@@H]1O [NSC269148],2.1,1.55
Brc1ccc(-c2csc(Nc3nc(-c4ccc(Br)cc4)cs3)n2)cc1 [NSC55691],–,114
O=[N+]([O-])c1ccc2[nH]c3nc4ccccc4nc3c2c1 [NSC78697],169,157
COc1ccccc1/C=C1\Cc2ccccc2C1=O [NSC636717],–,86
Oc1ccc2ccccc2c1C=Nc1ccccc1 [NSC111846],77,84.6
CCN(CC)c1nc(Cl)nc(Nc2ccc3cc(-c4ccccc4)c(=O)oc3c2)n1 [NSC338963],114,110
Oc1ccc(N=Cc2c(O)ccc3ccccc23)cc1 [NSC111848],93.1,74.1
CC(=O)c1sc2c(c1OC(=O)c1ccc(Cl)cc1Cl)c(=O)n(-c1ccccc1)c(=S)n2-c1ccccc1 [NSC671136],71.5,12.8
Cc1ccc(N2CCN(CC(O)COc3cccc4ccccc34)CC2)cc1 (stereo not drawn) [NSC91402],156,145
O=C(Nc1ccccc1Cl)Oc1ccc(-c2ccccc2)cc1 [NSC204321],–,90.1
CC(=O)O[C@H]1CC[C@@]2(C)[C@@H](CC[C@@H]3[C@@H]2CC(=O)[C@@]2(C)[C@H]3C[C@@H]3CC(C)=CC(=O)[C@@H]32)C1 [NSC59620],–,93.6
O=C(Nc1ccccc1-c1ccccc1)C(=O)Nc1ccccc1-c1ccccc1 [NSC338042],–,93.1
Oc1ccccc1-c1nc2c3ccccc3c3ccccc3c2[nH]1 [NSC332670],79.2,84.8
Fc1ccc(-c2cc(-c3cccs3)cc(-c3ccccc3)n2)cc1 [NSC246999],–,98.7
O=C(Nc1ccc(Nc2ccncc2)cc1)c1ccc(Nc2ccnc3ccc([N+](=O)[O-])cc23)cc1 [NSC146771],91.1,–
CC(=O)Oc1ccc2cc(-c3ccccc3)c(=O)oc2c1 [NSC17055],–,102
c1ccc(-c2nc(-c3nccc4ccccc34)oc2-c2ccccc2)cc1 [NSC25457],–,110
Cn1ncc2c(Nc3ccccc3Cl)nc(Nc3ccccc3Cl)nc21 [NSC19061],158,–
Clc1ccc(-c2n[nH]c3c2Cc2ccccc2-3)cc1Cl [NSC331968],62.9,43.2
COc1ccc2c(c1)c1ccc3c(c1n2C)C(=O)C=CC3=O [NSC641396],2.72,1.44
